Converted amounts (≈) assume the structure as drawn. Bridge positions count the residues as written; N and C are the ends. Peptide text beside a SMILES is read from it.
What was measured:
[1] = molecular target: Imp beta (Homo sapiens, UniProt Q14974); details: cell culture and preclinical studies
[2] = Solubility of NTM peptides; format: physicochemical; details: cSN50: depending on the method of synthesis and purification; read-out: soluble at levels of
Description: cSN50.1 is a cyclized peptide having the sequence of cSN50 with the exception that the tyrosine at position 18 of cSN50, adjacent to the first cysteine, has been removed. Methods of making and using cSN50 are described, for example, in U.S. Pat. Nos. 7,553,929 and 6,495,518. The amino acid sequence of cSN50.1 is […] (SEQ ID NO: 2). The tyrosine at position 18 was removed from the sequence of cSN50 to increase solubility. cSN50 is soluble at levels of ranging from 2.0 mg/mL to 40 mg/mL depending on the method of synthesis and purification whereas cSN50.1 is soluble at levels of at least 100 mg/ml. Any mimetics, derivatives, or homologs of cSN50.1 may be used in the compositions, methods, and kits disclosed herein. cSN50.1 is also encompassed by SEQ ID NO: 3, SEQ ID NO: 4 and SEQ ID NO: 5. Additional examples of NTMs include fragment-designed and synthesized peptides in which cargo is incorporated as two, rather than one, modules or cargos derived from intracellular proteins other than NFκB 1. Such additional examples include the sequences of SEQ ID NO: 6, SEQ ID NO: 7, SEQ ID NO: 8, and SEQ ID NO: 9.

Imp beta, sequence (Q14974 whole entry, looked up): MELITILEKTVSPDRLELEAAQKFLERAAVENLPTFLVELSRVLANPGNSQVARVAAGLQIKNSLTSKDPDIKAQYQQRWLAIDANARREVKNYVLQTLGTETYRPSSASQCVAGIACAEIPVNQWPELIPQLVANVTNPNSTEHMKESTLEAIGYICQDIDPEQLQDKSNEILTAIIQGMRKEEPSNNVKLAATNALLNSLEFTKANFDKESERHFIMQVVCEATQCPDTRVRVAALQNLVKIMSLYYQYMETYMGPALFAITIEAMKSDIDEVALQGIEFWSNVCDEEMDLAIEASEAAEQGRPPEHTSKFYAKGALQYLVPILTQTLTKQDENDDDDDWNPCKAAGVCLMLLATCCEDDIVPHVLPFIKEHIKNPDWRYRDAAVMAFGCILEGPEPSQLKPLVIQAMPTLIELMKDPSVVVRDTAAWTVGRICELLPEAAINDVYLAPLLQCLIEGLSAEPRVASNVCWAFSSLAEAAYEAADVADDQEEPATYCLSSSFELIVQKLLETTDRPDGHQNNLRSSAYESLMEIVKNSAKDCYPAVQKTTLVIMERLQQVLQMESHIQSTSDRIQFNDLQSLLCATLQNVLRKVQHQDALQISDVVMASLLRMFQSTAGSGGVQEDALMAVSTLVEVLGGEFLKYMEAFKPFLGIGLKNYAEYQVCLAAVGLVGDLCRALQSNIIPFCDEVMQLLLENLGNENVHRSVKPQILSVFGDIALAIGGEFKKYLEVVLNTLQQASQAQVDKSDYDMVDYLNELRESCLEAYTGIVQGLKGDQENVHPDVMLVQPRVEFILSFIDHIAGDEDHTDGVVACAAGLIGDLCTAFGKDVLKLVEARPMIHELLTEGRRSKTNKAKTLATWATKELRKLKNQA

For AAVALLPAVLLALLAPCVQRDEQKLMPC [cSN50.1β], the “importin selectivity (Comments)” value [1] was “Imp beta-selective”.
For `CSCC[C@@H]1NC(=O)[C@H](CC(C)C)NC(=O)[C@H](CCCCN)NC(=O)[C@H](CCC(N)=O)NC(=O)[C@H](CCCNC(=N)N)NC(=O)[C@H](CCCCN)NC(=O)[C@H](CCCNC(=N)N)NC(=O)[C@H](CCC(N)=O)NC(=O)[C@H](C(C)C)NC(=O)[C@@H](NC(=O)[C@@H]2CCCN2C(=O)[C@H](C)NC(=O)[C@H](CC(C)C)NC(=O)[C@H](CC(C)C)NC(=O)[C@H](C)NC(=O)[C@H](CC(C)C)NC(=O)[C@H](CC(C)C)NC(=O)[C@@H](NC(=O)[C@H](C)NC(=O)[C@@H]2CCCN2C(=O)[C@H](CC(C)C)NC(=O)[C@H](CC(C)C)NC(=O)[C@H](C)NC(=O)[C@@H](NC(=O)[C@H](C)NC(=O)[C@H](C)N)C(C)C)C(C)C)CSSC[C@@H](C(=O)O)NC(=O)[C@@H]2CCCN2C1=O` [cSN50.1] (H-AAVALLPAVLLALLAPCVQRKRQKLMPC-OH; disulfide 17-28; N-terminus and C-terminus assumed), the solubility [2] was ≥ 100 mg/mL.
Compound `CSCC[C@@H]1NC(=O)[C@H](CC(C)C)NC(=O)[C@H](CCCCN)NC(=O)[C@H](CCC(N)=O)NC(=O)[C@H](CCCNC(=N)N)NC(=O)[C@H](CCCCN)NC(=O)[C@H](CCCNC(=N)N)NC(=O)[C@H](CCC(N)=O)NC(=O)[C@H](C(C)C)NC(=O)[C@H](Cc2ccc(O)cc2)NC(=O)[C@@H](NC(=O)[C@@H]2CCCN2C(=O)[C@H](C)NC(=O)[C@H](CC(C)C)NC(=O)[C@H](CC(C)C)NC(=O)[C@H](C)NC(=O)[C@H](CC(C)C)NC(=O)[C@H](CC(C)C)NC(=O)[C@@H](NC(=O)[C@H](C)NC(=O)[C@@H]2CCCN2C(=O)[C@H](CC(C)C)NC(=O)[C@H](CC(C)C)NC(=O)[C@H](C)NC(=O)[C@@H](NC(=O)[C@H](C)NC(=O)[C@H](C)N)C(C)C)C(C)C)CSSC[C@@H](C(=O)O)NC(=O)[C@@H]2CCCN2C1=O` [cSN50] (H-AAVALLPAVLLALLAPCYVQRKRQKLMPC-OH; disulfide 17-29; N-terminus and C-terminus assumed) has a solubility [2] of 2 to 40 mg/mL (≈ 0.635 to 12.7 mM).
